Assay results published in patent US8586533B2, “Treatment of early-stage osteoarthritis” (Kaohsiung Medical University, priority 2008, dated 2013).

Legend:
rat articular cartilage [1] = assay: Papain-induced OA rat model, TUNEL staining of tibia articular sections; assay type: in vivo, Sprague-Dawley rats; conditions: OA plus PTH group, 10 nM intraarticular
Protocol: (§1) Fifty-four 12-week-old male Sprague-Dawley rats (250-300 gm) were purchased from BioLASCO Taiwan and housed under standard laboratory conditions (temperature 24° C., 12-hour light-dark cycle) with food and water ad libitum. The animals were acclimatized to the laboratory environment for 1 week before the experiments.
Rats were divided into the following 3 groups: OA (OA induction without PTH [1-34] treatment) (n=18), OA plus PTH (PTH [1-34] treatment followed by OA induction) (n=18), and PTH (PTH [1-34] treatment without OA induction) (n=18). Each left knee, which served as the contralateral control joint, was injected with vehicle without PTH treatment or OA induction. The right knees were the study joints. OA was induced in the right knees of rats in the OA and OA plus PTH groups with intraarticular injections of 20 μl of 4% papain solution and 20 μl of 0.03M cysteine. The injections were given with a 26-gauge needle via the patellar tendon on days 1, 4, and 7 of the experiment (see e.g., Nucl Med Commun (1996) 17(6): 529-35). […]
Apoptotic cells in each section were measured by TUNEL staining using the In Situ Cell Death Detection Kit, TMR red. […] DAPI-stained cells (mean±SEM 150±40) were counted in the center area of the cartilage in tibia plateaus. […]

rat articular cartilage [2] = assay: Papain-induced OA rat model, Safranin O-stained GAG histomorphometry; assay type: in vivo, Sprague-Dawley rats; conditions: for GAG level (red:total ratio) versus OA group: p<0.01
Protocol: as §1
Rats were divided into the following 3 groups: OA (OA induction without PTH [1-34] treatment) (n=18), OA plus PTH (PTH [1-34] treatment followed by OA induction) (n=18), and PTH (PTH [1-34] treatment without OA induction) (n=18). Each left knee, which served as the contralateral control joint, was injected with vehicle without PTH treatment or OA induction. The right knees were the study joints. OA was induced in the right knees of rats in the OA and OA plus PTH groups with intraarticular injections of 20 μl of 4% papain solution and 20 μl of 0.03M cysteine. The injections were given with a 26-gauge needle via the patellar tendon on days 1, 4, and 7 of the experiment (see e.g., Nucl Med Commun (1996) 17(6): 529-35). In the OA plus PTH group, after OA induction, the right knees were injected intraarticularly with 40 μl of 10 nM PTH (1-34) every 3 days until rats were killed. In the PTH group, the same PTH (1-34) treatment was performed but without OA induction. Six rats from each group were killed by CO2 inhalation at the same time points as rats in the OA plus PTH group, in which PTH (1-34) treatment was given for 1, 3, and 5 weeks.
After rats were killed, the knees were harvested, and the tibia plateaus with articular cartilage were collected and fixed with 10% neutral buffered formalin prior to histologic preparation. The samples were then decalcified in 10% formic acid/PBS. The decalcified tibia articular samples were paraffin embedded, and 5-μm microsections in the coronary plane were prepared. GAG was stained with Safranin O-fast green (1% Safranin O counterstained with 0.75% hematoxylin and then 1% fast green) (Sigma, St. Louis Mo.). Localized type II collagen and type X collagen were immunostained. Apoptotic cells in cartilage were TUNEL stained.
GAG was stained red by Safranin O, and the total and red-stained areas in the articular cartilage of each proximal tibia were measured using Image-Pro Plus software, version 5.0. The ratio of red stained area to total area (red:total) in each group was calculated.
Methods are as described above in the Sections entitled “Animal Experiments” and “Osteoarthritis Induction and PTH Treatment” except that the concentration of the administered dose of PTH (1-34) was 5 nM, 10 nM, or 100 nM. Safranin O-stained articular cartilage in the proximal tibia from the contralateral control joints of rats in the OA group and the study joints of rats in the OA and OA plus PTH groups are measured for the ratio of Safranin O-stained area to total area. The ratios of Safranin O-stained area to total area (red/total) among all groups after 5 weeks of PTH treatment are compared. Bars show the mean and SEM of 6 samples. Data are evaluated by one-way analysis of variance, and multiple comparisons are performed using Scheffe's method. **=P<0.01: the control joints versus study joints in the OA group at the indicated time point; ##=P<0.01: the OA joints versus study joints in groups of OA plus PTH 5 nM, OA plus PTH 10 nM, and OA plus PTH 100 nM.

[3] = system: human articular chondrocytes; assay: TUNEL staining, rate of apoptosis in chondrocyte cultures; assay type: cell-based; conditions: azaC plus PTH cultures, 10 nM, 14 days of treatment, P<0.01
Protocol: Chondrocyte cultures were divided into 4 groups.
We measured apoptotic cells using the TUNEL (terminal deoxy-nucleotidyl transferase mediated dUTP nick end labeling) staining method using the In Situ Cell Death Detection Kit, TMR red (Roche, Mannheim, Germany). Following the manufacturer's guidelines, cells were fixed with 4% paraformaldehyde in phosphate buffered saline (PBS) at a cell density of 1×10^6/ml and incubated at room temperature for 10 minutes, and then settled on a slide by centrifugation at a speed of 2,000 rpm for 5 minutes using a cytospin (Cytospin 3; Shandon, Cheshire, UK). Slides were rinsed twice with PBS, and the cells were permeabilized by incubating in permeabilization solution (0.1% Triton X-100 in 0.1% sodium citrate) for 2 minutes on ice. The TUNEL reaction mixture containing terminal deoxynucleotidyl transferase and rhodamine (the labeling dye) was added to the slides and incubated at 37° C. in a humidified chamber in the dark for 60 minutes. The reaction was stopped by a blocking buffer (0.1% Triton X-100/0.5% bovine serum albumin in PBS). Cells were counterstained by 4′,6-diamidino-2-phenylindole (DAPI). The slides were observed under a fluorescence microscope with an excitation wavelength of 580 nm for rhodamine and 365 nm for DAPI. Cell nuclei were stained blue by DAPI, and only apoptotic cells were stained red by rhodamine. Stained cells were counted in 5 microscopic fields (1.566 mm^2/field) on each slide. Data were analyzed using Image-Pro Plus analysis software (Media Cybernetics, Silver Spring, Md.). The rate of apoptosis in chondrocytes was defined as the ratio of red-stained cells (apoptotic cells) to blue-stained cells (total cells).
By using TUNEL staining, the rate of apoptosis in human articular chondrocyte cultures in the control, azaC, and azaC plus PTH groups were compared after 14 days of PTH(1-34) treatment (for the azaC plus PTH group).

PTH (1-34): 34-amino acid long peptide made up of amino-terminal amino acids 1 through 34 of human parathyroid hormone
rate of apoptosis of chondrocytes in study cartilage versus contralateral control cartilage (rat articular cartilage [1]): no significant difference | rate of apoptosis of chondrocytes in study cartilage versus OA group (rat articular cartilage [1]; P<0.01): significantly lower | GAG level (red:total ratio) versus OA group (rat articular cartilage [2]; 5 nM, intraarticular every three days, 5 weeks): significantly higher | GAG level (red:total ratio) versus OA group (rat articular cartilage [2]; 10 nM, intraarticular every three days, 5 weeks): significantly higher | GAG level (red:total ratio) versus OA group (rat articular cartilage [2]; 100 nM, intraarticular every three days, 5 weeks): significantly higher | GAG level, control group versus PTH-treated groups (rat articular cartilage [2]; 5, 10, or 100 nM, intraarticular every three days, 5 weeks): no significant difference | red:total ratio versus contralateral control (rat articular cartilage [2]; OA plus PTH group, 10 nM intraarticular, 1 and 3 weeks, P<0.01): significantly lower | red:total ratio versus contralateral control cartilage (rat articular cartilage [2]; OA plus PTH group, 10 nM intraarticular, 5 weeks): not significantly different | red:total ratio (Safranin O-stained area to total area, GAG) versus OA group (rat articular cartilage [2]; OA plus PTH group, intraarticular 40 μl of 10 nM every 3 days, 1, 3, and 5 weeks, P<0.01): significantly higher | red:total ratio, study cartilage versus contralateral control cartilage (rat articular cartilage [2]; PTH group (no OA induction), 10 nM intraarticular, any time point): no significant differences | rate of apoptosis versus azaC cultures [3]: significantly lower | rate of apoptosis versus control cultures [3]: 3.1 fold increase
